Measured values from US20080275032A1, “Pyridazinone compounds” (priority 2006, published 2008).

Target: HCV NS5B polymerase (Hepatitis C virus genotype 1b, UniProt P26663)
Test: biochemical
Settings: HCV polymerase inhibition, 50 nM enzyme, 2 h at room temperature, FlashPlate [α-33P]GTP incorporation
Protocol: NS5B Polymerase Inhibition Assay (IC50)
Compounds were tested for HCV polymerase inhibition. Assays were performed in a 96-well streptavidin-coated FlashPlate using 50 nM enzyme, 0.5 μCi of [α-^33P]GTP, 0.6 μM GTP, and 50 nM 5′biotinylated oligo (rG13)/poly rC in 20 mM Tris-HCl, pH 7.5, 5 mM MgCl2, 20 mM NaCl, 5 mM dithiothreitol, and 0.1 g/L BSA. The reaction was stopped by aspiration after 2 h at room temperature and the plate was washed several times. After washing, incorporated radioactivity was counted using a Microbeta scintillation counter.

Sequence of HCV NS5B polymerase (P26663 2420-3010): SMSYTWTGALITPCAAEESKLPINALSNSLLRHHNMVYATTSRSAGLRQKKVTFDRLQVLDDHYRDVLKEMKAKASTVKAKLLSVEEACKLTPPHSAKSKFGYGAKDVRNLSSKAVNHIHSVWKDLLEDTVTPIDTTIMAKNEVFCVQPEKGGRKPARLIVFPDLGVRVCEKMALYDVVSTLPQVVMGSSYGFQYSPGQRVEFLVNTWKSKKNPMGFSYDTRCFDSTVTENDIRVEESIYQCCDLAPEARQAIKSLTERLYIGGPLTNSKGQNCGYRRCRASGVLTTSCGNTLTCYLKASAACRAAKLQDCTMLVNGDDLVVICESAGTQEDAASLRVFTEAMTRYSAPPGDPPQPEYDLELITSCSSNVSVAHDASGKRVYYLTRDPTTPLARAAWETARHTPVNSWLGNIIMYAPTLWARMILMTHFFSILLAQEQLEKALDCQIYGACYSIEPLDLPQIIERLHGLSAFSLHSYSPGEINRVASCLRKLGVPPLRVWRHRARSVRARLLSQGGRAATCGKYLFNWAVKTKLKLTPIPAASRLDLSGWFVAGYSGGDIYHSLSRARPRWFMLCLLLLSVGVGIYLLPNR

Row | IC50 | Structure (SMILES)
1 | < 100 nM | CCS(=O)(=O)Nc1ccc2c(c1)S(=O)(=O)NC(c1c(O)c(-c3cncs3)nn(CCC(C)C)c1=O)=N2 [Ethanesulfonic acid {3-[5-hydroxy-2-(3-methyl-butyl)-3-oxo-6-thiazol-5-yl-2,3-dihydro-pyridazin-4-yl]-1,1-dioxo-1,2-dihydro-1λ^6-benzo[1,2,4]thiadiazin-7-yl}-amide]
2 | < 100 nM | CCS(=O)(=O)Nc1ccc2c(c1)S(=O)(=O)NC(c1c(O)c(-c3cccs3)nn(CCC(C)C)c1=O)=N2 [Ethanesulfonic acid {3-[5-hydroxy-2-(3-methyl-butyl)-3-oxo-6-thiophen-2-yl-2,3-dihydro-pyridazin-4-yl]-1,1-dioxo-1,2-dihydro-1λ^6-benzo[1,2,4]thiadiazin-7-yl}-amide]
3 | 1000 to 10000 nM | C=CS(=O)(=O)N(C)c1ccc2c(c1)S(=O)(=O)NC(c1c(O)c(-c3cccs3)nn(CCC(C)(C)C)c1=O)=N2 [Ethenesulfonic acid {3-[2-(3,3-dimethyl-butyl)-5-hydroxy-3-oxo-6-thiophen-2-yl-2,3-dihydro-pyridazin-4-yl]-1,1-dioxo-1,2-dihydro-1λ^6-benzo[1,2,4]thiadiazin-7-yl}-methyl-amide]
4 | 1000 to 10000 nM | CC(C)CCn1nc(-c2cccs2)c(OC(=O)C(C)C)c(C2=Nc3ccc(N(C)S(C)(=O)=O)cc3S(=O)(=O)N2)c1=O [Isobutyric acid 5-[7-(methanesulfonyl-methyl-amino)-1,1-dioxo-1,2-dihydro-1λ^6-benzo[1,2,4]thiadiazin-3-yl]-1-(3-methyl-butyl)-6-oxo-3-thiophen-2-yl-1,6-dihydro-pyridazin-4-yl ester]
5 | 100 to 1000 nM | CC(C)CCn1nc(-c2cncs2)c(O)c(C2=Nc3ccc(N(CCO)S(C)(=O)=O)cc3S(=O)(=O)N2)c1=O [N-(2-Hydroxy-ethyl)-N-{3-[5-hydroxy-2-(3-methyl-butyl)-3-oxo-6-thiazol-5-yl-2,3-dihydro-pyridazin-4-yl]-1,1-dioxo-1,2-dihydro-1λ^6-benzo[1,2,4]thiadiazin-7-yl}-methanesulfonamide]
6 | 100 to 1000 nM | CC(C)CCn1nc(-c2cccs2)c(O)c(C2=Nc3ccc(N(C(=O)OC(C)C)S(C)(=O)=O)cc3S(=O)(=O)N2)c1=O [N-({3-[5-hydroxy-2-(3-methyl-butyl)-3-oxo-6-thiophen-2-yl-2,3-dihydro-pyridazin-4-yl]-1,1-dioxo-1,2-dihydro-1λ^6-benzo[1,2,4]thiadiazin-7-yl}-N-methanesulfonyl)-isopropylcarbamate]
7 | 1000 to 10000 nM | CC(C)CCn1nc(-c2cccs2)c(O)c(C2=Nc3ccc(N(COCc4ccccc4)S(C)(=O)=O)cc3S(=O)(=O)N2)c1=O [N-Benzyloxymethyl-N-{3-[5-hydroxy-2-(3-methyl-butyl)-3-oxo-6-thiophen-2-yl-2,3-dihydro-pyridazin-4-yl]-1,1-dioxo-1,2-dihydro-1λ^6-benzo[1,2,4]thiadiazin-7-yl}-methanesulfonamide]
8 | < 100 nM | CS(=O)(=O)Nc1ccc2c(c1)S(=O)(=O)N=C(c1c(O)c(-c3cccs3)nn(Cc3ccccc3)c1=O)N2 [N-[3-(2-Benzyl-5-hydroxy-3-oxo-6-thiophen-2-yl-2,3-dihydro-pyridazin-4-yl)-1,1-dioxo-1,2-dihydro-1λ^6-benzo[1,2,4]thiadiazin-7-yl]-methanesulfonamide]
9 | < 100 nM | O=C(NS(=O)(=O)Nc1ccc2c(c1)S(=O)(=O)NC(c1c(O)c(-c3cncs3)nn(CC3CCC3)c1=O)=N2)OCc1ccccc1 [N-[3-(2-Cyclobutylmethyl-5-hydroxy-3-oxo-6-thiazol-5-yl-2,3-dihydro-pyridazin-4-yl)-1,1-dioxo-1,2-dihydro-1λ^6-benzo[1,2,4]thiadiazin-7-yl]-3-carbamic-acid-benzyl-ester-sulfamide]

More lines, now with the values behind:

Row | Structure (SMILES) | IC50
10 | CC(C)CCn1nc(-c2cccs2)c(OCOC(=O)C(C)(C)C)c(C2=Nc3ccc(N(C)S(C)(=O)=O)cc3S(=O)(=O)N2)c1=O [2,2-Dimethyl-propionic acid 5-[7-(methanesulfonyl-methyl-amino)-1,1-dioxo-1,2-dihydro-1λ^6-benzo[1,2,4]thiadiazin-3-yl]-1-(3-methyl-butyl)-6-oxo-3-thiophen-2-yl-1,6-dihydro-pyridazin-4-yloxymethyl ester] | 1000 to 10000 nM
11 | CC(C)(C)CCn1nc(-c2cccs2)c(O)c(C2=NS(=O)(=O)c3cc(N(COC(=O)C(C)(C)C)S(C)(=O)=O)ccc3N2)c1=O [2,2-Dimethyl-propionic acid ({3-[2-(3,3-dimethyl-butyl)-5-hydroxy-3-oxo-6-thiophen-2-yl-2,3-dihydro-pyridazin-4-yl]-1,1-dioxo-1,2-dihydro-1λ^6-benzo[1,2,4]thiadiazin-7-yl}-methanesulfonyl-amino)-methylester] | 100 to 1000 nM
12 | CC(C)CCn1nc(-c2cccs2)c(O)c(C2=Nc3ccc(N(COC(=O)C(C)(C)C)S(C)(=O)=O)cc3S(=O)(=O)N2)c1=O [2,2-Dimethyl-propionic acid ({3-[5-hydroxy-2-(3-methyl-butyl)-3-oxo-6-thiophen-2-yl-2,3-dihydro-pyridazin-4-yl]-1,1-dioxo-1,2-dihydro-1λ^6-benzo[1,2,4]thiadiazin-7-yl}-methanesulfonyl-amino)-methylester] | 100 to 1000 nM
13 | CC(C)(C)CCn1nc(-c2cccs2)c(O)c(C2=Nc3ccc(NS(=O)(=O)CCN)cc3S(=O)(=O)N2)c1=O [2-Amino-ethanesulfonic acid {3-[2-(3,3-dimethyl-butyl)-5-hydroxy-3-oxo-6-thiophen-2-yl-2,3-dihydro-pyridazin-4-yl]-1,1-dioxo-1,2-dihydro-1λ^6-benzo[1,2,4]thiadiazin-7-yl}-amide] | < 100 nM
14 | CCN(CC)CCS(=O)(=O)Nc1ccc2c(c1)S(=O)(=O)NC(c1c(O)c(-c3cccs3)nn(CCC(C)(C)C)c1=O)=N2 [2-Diethylamino-ethanesulfonicacid {3-[2-(3,3-dimethyl-butyl)-5-hydroxy-3-oxo-6-thiophen-2-yl-2,3-dihydro-pyridazin-4-yl]-1,1-dioxo-1,4-dihydro-1λ^6-benzo[1,2,4]thiadiazin-7-yl}-amide] | 100 to 1000 nM
15 | CC(C)CCn1nc(-c2cncs2)c(O)c(C2=Nc3ccc(NS(=O)(=O)C(C)(C)C)cc3S(=O)(=O)N2)c1=O [2-Methyl-propane-2-sulfonic acid{3-[5-hydroxy-2-(3-methyl-butyl)-3-oxo-6-thiazol-5-yl-2,3-dihydro-pyridazin-4-yl]-1,1-dioxo-1,2-dihydro-1λ^6-benzo[1,2,4]thiadiazin-7-yl}-amide] | < 100 nM
16 | CC(C)CCn1nc(-c2cccs2)c(O)c(C2=Nc3ccc(NCCS(N)(=O)=O)cc3S(=O)(=O)N2)c1=O [2-{3-[5-Hydroxy-2-(3-methyl-butyl)-3-oxo-6-thiophen-2-yl-2,3-dihydro-pyridazin-4-yl]-1,1-dioxo-1,2-dihydro-1λ^6-benzo[1,2,4]thiadiazin-7-ylamino}-ethanesulfonic acid amide] | 100 to 1000 nM
17 | CC(C)CCn1nc(-c2cccs2)c(O)c(C2=NS(=O)(=O)c3cc(N4CCCS4(=O)=O)ccc3N2)c1=O [4-[7-(1,1-Dioxo-1l6-isothiazolidin-2-yl)-1,1-dioxo-1,2-dihydro-1λ^6-benzo[1,2,4]thiadiazin-3-yl]-5-hydroxy-2-(3-methyl-butyl)-6-thiophen-2-yl-2H-pyridazin-3-one] | 100 to 1000 nM
18 | CC(C)CCn1nc(-c2cccs2)c(O)c(C2=Nc3ccc(C4CCCS4(=O)=O)cc3S(=O)(=O)N2)c1=O (stereo not drawn) [4-[7-(1,1-Dioxo-tetrahydro-1l6-thiophen-2-yl)-1,1-dioxo-1,2-dihydro-1λ^6-benzo[1,2,4]thiadiazin-3-yl]-5-hydroxy-2-(3-methyl-butyl)-6-thiophen-2-yl-2H-pyridazin-3-one] | 100 to 1000 nM
19 | CC(C)CCn1nc(-c2cccs2)c(O)c(C2=NS(=O)(=O)c3cc(CCS(C)(=O)=O)ccc3N2)c1=O [5-Hydroxy-4-[7-(2-methanesulfonyl-ethyl)-1,1-dioxo-1,2-dihydro-1λ^6-benzo[1,2,4]thiadiazin-3-yl]-2-(3-methyl-butyl)-6-thiophen-2-yl-2H-pyridazin-3-one] | 100 to 1000 nM
20 | CC(C)CCn1nc(-c2cccs2)c(O)c(C2=Nc3ccc(/C=C/S(C)(=O)=O)cc3S(=O)(=O)N2)c1=O [5-Hydroxy-4-[7-(2-methanesulfonyl-vinyl)-1,1-dioxo-1,2-dihydro-1λ^6-benzo[1,2,4]thiadiazin-3-yl]-2-(3-methyl-butyl)-6-thiophen-2-yl-2H-pyridazin-3-one] | 100 to 1000 nM
21 | O=c1c(C2=Nc3ccc(NS(=O)(=O)C4CC4)cc3S(=O)(=O)N2)c(O)c(-c2cccs2)nn1CCC1CC1 [Cyclopropanesulfonic acid {3-[2-(2-cyclopropyl-ethyl)-5-hydroxy-3-oxo-6-thiophen-2-yl-2,3-dihydro-pyridazin-4-yl]-1,1-dioxo-1,2-dihydro-1λ^6-benzo[1,2,4]thiadiazin-7-yl}-amide] | < 100 nM
22 | O=c1c(C2=Nc3ccc(NS(=O)(=O)C4CC4)cc3S(=O)(=O)N2)c(O)c(-c2cccs2)nn1Cc1ccc(F)c(Cl)c1 [Cyclopropanesulfonic acid {3-[2-(3-chloro-4-fluoro-benzyl)-5-hydroxy-3-oxo-6-thiophen-2-yl-2,3-dihydro-pyridazin-4-yl]-1,1-dioxo-1,2-dihydro-1λ^6-benzo[1,2,4]thiadiazin-7-yl}-amide] | 100 to 1000 nM
23 | CC(C)CCn1nc(-c2cncs2)c(O)c(C2=Nc3ccc(NS(=O)(=O)C4CC4)cc3S(=O)(=O)N2)c1=O [Cyclopropanesulfonic acid {3-[5-hydroxy-2-(3-methyl-butyl)-3-oxo-6-thiazol-5-yl-2,3-dihydro-pyridazin-4-yl]-1,1-dioxo-1,2-dihydro-1λ^6-benzo[1,2,4]thiadiazin-7-yl}-amide] | < 100 nM
24 | CC(C)CCn1nc(C(C)(C)C)c(O)c(C2=Nc3ccc(NS(=O)(=O)C4CC4)cc3S(=O)(=O)N2)c1=O [Cyclopropanesulfonic acid {3-[6-tert-butyl-5-hydroxy-2-(3-methyl-butyl)-3-oxo-2,3-dihydro-pyridazin-4-yl]-1,1-dioxo-1,2-dihydro-1λ^6-benzo[1,2,4]thiadiazin-7-yl}-amide] | 1000 to 10000 nM
